# Where two headings read alike, the source gives them in different places.
# What was measured:
# Format in all cases: cell-based
# IKZF1 = molecular target: T1, IKZF1 (Homo sapiens, UniProt Q13422+Q96SW2); test: Western blot degradation of IKZF1 (hPBMC); conditions: Table D16
# T1 construct: evaluate the effects of the compounds of the present disclosure on the expression of target proteins in cells; endogenous in cells; host or cells: hPBMC
# In short: (§1)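 Degradation is assessed by immunoblotting lysates of treated cells. Target bands are quantified by grayscale and normalised to an internal control, so degradation rate equals 100% minus % remaining.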
# IKZF2 = molecular target: T2, IKZF2 (Homo sapiens, UniProt Q96SW2+Q9UKS7); test: Western blot degradation of IKZF2 (hPBMC); conditions: Table D16
# T2 construct: evaluate the effects of the compounds of the present disclosure on the expression of target proteins in cells; endogenous in cells; host or cells: hPBMC
# In short: as §1
# CK1a = molecular target: T3, CK1a (Homo sapiens, UniProt P48729+Q96SW2); test: Western blot degradation of CK1a (hPBMC); conditions: Table D16
# T3 construct: evaluate the effects of the compounds of the present disclosure on the expression of target proteins in cells; endogenous in cells; host or cells: hPBMC
# In short: as §1
# IKZF3 = molecular target: T4, IKZF3 (Homo sapiens, UniProt Q96SW2+Q9UKT9); test: Western blot degradation of IKZF3 (hPBMC); conditions: Table D16
# T4 construct: evaluate the effects of the compounds of the present disclosure on the expression of target proteins in cells; endogenous in cells; host or cells: hPBMC
# In short: as §1
# GSPT1 = molecular target: T5, GSPT1 (Homo sapiens, UniProt P15170+Q96SW2); test: Western blot degradation of GSPT1 (hPBMC); conditions: Table D16
# T5 construct: evaluate the effects of the compounds of the present disclosure on the expression of target proteins in cells; endogenous in cells; host or cells: hPBMC
# In short: as §1
# WEE1 = molecular target: T6, WEE1 (Homo sapiens, UniProt P30291+Q96SW2); test: Western blot degradation of WEE1 (hPBMC); conditions: Table D16
# T6 construct: evaluate the effects of the compounds of the present disclosure on the expression of target proteins in cells; endogenous in cells; host or cells: hPBMC
# In short: as §1
# MM.1S = test: CCK-8 proliferation, MM.1S; conditions: Homo sapiens, MM1.S, read-out: Inhibitory activity (IC50) on tumor cell proliferation, MM1S
# In short: (§2)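 CCK-8 viability readout; IC50 from growth-inhibition curve fitting. Cells plated, dosed 24h later with a 10-point series, top 10µM, 5-fold steps. Culture at 37°C, 5% CO2.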
# MCF7 = test: CCK-8 proliferation, MCF7 (MCF-7); conditions: Homo sapiens, MCF7; CCK-8; read-out: Inhibitory activity (IC50) on tumor cell proliferation, MCF-7
# In short: as §2
# T4 sequence (Q9UKT9 whole entry): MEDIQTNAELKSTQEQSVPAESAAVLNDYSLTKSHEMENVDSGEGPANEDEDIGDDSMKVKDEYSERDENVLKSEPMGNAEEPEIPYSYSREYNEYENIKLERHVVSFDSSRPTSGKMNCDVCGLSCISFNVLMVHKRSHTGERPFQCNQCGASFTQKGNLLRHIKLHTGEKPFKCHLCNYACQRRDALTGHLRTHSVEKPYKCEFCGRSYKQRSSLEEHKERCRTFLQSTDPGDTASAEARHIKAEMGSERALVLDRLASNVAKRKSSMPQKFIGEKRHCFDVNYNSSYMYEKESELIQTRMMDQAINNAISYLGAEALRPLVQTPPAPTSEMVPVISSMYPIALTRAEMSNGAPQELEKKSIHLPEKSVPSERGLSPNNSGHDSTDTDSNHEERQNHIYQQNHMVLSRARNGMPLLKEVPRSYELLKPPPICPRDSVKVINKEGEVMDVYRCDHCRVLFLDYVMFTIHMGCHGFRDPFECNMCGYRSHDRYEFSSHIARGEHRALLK
# T4 sequence (Q96SW2 whole entry): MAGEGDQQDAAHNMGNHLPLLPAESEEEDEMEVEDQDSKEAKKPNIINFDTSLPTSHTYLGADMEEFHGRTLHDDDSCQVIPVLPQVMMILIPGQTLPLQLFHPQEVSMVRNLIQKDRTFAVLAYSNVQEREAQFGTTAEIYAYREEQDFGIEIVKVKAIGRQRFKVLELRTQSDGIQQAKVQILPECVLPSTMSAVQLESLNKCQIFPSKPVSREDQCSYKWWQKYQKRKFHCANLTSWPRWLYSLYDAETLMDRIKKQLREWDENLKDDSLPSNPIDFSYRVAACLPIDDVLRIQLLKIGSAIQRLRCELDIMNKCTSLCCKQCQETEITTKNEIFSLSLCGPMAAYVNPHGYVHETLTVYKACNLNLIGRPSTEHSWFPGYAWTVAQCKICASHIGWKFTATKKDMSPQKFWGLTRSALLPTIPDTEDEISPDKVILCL
# T4 sequence (Q16531 whole entry partner): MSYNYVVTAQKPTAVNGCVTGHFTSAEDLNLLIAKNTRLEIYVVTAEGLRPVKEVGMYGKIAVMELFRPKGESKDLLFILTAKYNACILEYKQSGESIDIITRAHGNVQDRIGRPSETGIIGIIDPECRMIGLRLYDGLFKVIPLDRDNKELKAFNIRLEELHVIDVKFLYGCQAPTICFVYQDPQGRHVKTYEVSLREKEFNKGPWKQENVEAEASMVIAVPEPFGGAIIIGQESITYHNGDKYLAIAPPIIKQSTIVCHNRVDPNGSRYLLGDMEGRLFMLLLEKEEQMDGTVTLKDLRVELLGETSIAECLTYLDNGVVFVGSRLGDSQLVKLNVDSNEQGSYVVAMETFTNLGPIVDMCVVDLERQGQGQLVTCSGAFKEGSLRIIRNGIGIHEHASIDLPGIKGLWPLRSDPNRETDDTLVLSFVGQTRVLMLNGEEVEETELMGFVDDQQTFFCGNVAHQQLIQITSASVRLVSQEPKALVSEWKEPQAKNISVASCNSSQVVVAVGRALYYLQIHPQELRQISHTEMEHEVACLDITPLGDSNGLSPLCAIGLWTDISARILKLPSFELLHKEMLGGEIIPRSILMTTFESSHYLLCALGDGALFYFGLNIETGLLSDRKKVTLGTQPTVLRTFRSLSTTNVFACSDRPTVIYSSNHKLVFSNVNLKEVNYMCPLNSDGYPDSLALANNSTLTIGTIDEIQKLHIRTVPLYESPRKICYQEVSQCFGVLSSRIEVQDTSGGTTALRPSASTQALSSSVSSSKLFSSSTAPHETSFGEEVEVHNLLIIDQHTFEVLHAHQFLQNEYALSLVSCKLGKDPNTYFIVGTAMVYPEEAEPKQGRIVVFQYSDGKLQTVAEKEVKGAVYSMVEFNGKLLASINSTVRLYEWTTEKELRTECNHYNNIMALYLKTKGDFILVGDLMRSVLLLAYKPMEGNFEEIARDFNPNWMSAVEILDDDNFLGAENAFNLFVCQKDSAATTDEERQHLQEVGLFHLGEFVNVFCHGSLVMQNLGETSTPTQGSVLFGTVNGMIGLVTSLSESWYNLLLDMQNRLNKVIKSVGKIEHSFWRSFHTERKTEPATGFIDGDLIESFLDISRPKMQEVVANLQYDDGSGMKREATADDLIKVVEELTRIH
# T2 sequence (Q9UKS7 whole entry): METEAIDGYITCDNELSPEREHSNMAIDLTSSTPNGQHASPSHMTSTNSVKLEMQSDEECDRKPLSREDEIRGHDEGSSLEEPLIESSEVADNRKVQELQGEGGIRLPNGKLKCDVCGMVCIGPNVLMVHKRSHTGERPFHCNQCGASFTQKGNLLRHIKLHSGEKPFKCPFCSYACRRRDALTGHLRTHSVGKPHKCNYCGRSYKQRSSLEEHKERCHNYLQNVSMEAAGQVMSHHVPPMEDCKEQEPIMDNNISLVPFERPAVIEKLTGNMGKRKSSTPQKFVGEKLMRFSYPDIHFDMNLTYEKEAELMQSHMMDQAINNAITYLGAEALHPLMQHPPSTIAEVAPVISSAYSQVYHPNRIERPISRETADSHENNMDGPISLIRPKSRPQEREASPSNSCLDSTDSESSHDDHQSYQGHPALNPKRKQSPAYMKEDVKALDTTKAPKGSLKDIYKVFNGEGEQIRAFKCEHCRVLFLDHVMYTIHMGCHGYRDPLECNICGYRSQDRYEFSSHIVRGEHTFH
# T2 sequence (Q96SW2 whole entry): as the sequence (Q96SW2 whole entry) above
# T2 sequence (Q16531 whole entry partner): as the sequence (Q16531 whole entry partner) above
# T6 sequence (P30291 whole entry): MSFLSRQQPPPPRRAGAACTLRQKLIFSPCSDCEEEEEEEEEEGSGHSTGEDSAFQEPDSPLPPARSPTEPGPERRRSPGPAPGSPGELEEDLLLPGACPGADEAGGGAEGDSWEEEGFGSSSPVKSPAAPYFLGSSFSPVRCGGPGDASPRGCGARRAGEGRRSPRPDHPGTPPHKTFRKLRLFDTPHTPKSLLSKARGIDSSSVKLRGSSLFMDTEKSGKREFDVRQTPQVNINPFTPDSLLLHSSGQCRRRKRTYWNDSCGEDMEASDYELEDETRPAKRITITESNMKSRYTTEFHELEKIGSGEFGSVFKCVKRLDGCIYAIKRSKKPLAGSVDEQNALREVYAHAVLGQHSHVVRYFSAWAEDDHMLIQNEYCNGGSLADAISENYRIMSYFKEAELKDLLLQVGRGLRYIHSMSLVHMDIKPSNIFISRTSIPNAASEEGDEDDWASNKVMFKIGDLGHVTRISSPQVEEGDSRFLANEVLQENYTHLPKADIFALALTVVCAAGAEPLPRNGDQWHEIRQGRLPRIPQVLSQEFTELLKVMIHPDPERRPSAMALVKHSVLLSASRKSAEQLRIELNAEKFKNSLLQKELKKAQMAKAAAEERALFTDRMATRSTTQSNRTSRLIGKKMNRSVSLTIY
# T6 sequence (Q96SW2 whole entry): as the sequence (Q96SW2 whole entry) above
# T6 sequence (Q16531 whole entry partner): as the sequence (Q16531 whole entry partner) above
# T1 sequence (Q13422 whole entry): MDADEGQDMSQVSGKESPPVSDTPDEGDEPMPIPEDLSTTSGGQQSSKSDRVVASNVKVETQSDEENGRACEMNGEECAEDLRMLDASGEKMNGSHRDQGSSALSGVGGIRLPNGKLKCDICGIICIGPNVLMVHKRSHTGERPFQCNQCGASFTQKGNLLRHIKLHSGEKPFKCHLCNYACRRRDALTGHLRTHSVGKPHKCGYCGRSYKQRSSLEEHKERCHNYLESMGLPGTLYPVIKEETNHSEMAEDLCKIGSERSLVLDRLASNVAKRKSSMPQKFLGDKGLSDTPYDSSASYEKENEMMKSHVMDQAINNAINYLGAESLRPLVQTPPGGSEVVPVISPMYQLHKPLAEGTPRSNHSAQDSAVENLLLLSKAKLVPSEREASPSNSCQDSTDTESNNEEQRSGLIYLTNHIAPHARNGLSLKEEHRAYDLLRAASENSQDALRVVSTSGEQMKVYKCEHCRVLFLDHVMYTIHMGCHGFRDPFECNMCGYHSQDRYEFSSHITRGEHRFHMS
# T1 sequence (Q96SW2 whole entry): as the sequence (Q96SW2 whole entry) above
# T1 sequence (Q16531 whole entry partner): as the sequence (Q16531 whole entry partner) above
# T3 sequence (P48729 whole entry): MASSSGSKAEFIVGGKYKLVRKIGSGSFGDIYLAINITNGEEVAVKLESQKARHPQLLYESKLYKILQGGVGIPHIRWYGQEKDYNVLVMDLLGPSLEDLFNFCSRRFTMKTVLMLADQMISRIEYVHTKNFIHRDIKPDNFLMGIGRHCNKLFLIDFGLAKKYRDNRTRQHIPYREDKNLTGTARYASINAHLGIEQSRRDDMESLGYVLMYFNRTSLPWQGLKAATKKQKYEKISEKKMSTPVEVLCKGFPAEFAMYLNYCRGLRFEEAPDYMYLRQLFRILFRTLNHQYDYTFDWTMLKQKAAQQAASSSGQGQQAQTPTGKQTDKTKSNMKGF
# T3 sequence (Q96SW2 whole entry): as the sequence (Q96SW2 whole entry) above
# T3 sequence (Q16531 whole entry partner): as the sequence (Q16531 whole entry partner) above
Structure (SMILES),Degradation of substrate protein IKZF1 (substrate protein remaining %) (IKZF1),Degradation of substrate protein IKZF2 (substrate protein remaining %) (IKZF2),Degradation of substrate protein CKla (substrate protein remaining %) (CK1a),Degradation of substrate protein IKZF3 (substrate protein remaining %) (IKZF3),Degradation of substrate protein GSPT1 (substrate protein remaining %) (GSPT1),Degradation of substrate protein WEE1 (substrate protein remaining %) (WEE1),"IC50 (MM.1S; CCK-8, 72 hours) [nM]",IC50 (MM.1S; 72 h) [nM],IC50 (MCF7) [nM]
"NCc1cc(N2CCC(=O)NC2=O)ncc1F [GT-07369, 1-(4-(Aminomethyl)-5-fluoropyridin-2-yl)dihydropyrimidine-2,4(1H,3H)-dione]",B (B is defined as substrate protein remaining % > 80%),B (B is defined as substrate protein remaining % > 80%),A (A is defined as 0% ≤ substrate protein remaining % ≤ 80%),B (B is defined as substrate protein remaining % > 80%),A (A is defined as 0% ≤ substrate protein remaining % ≤ 80%),B (B is defined as substrate protein remaining % > 80%),1000 to 5000,–,–
"O=C1CCC(c2ccc(CO)nn2)C(=O)N1 (stereo not drawn) [GT-07636, 3-(6-(Hydroxymethyl)pyridazin-3-yl)piperidine-2,6-dione]",A (A is defined as 0% ≤ substrate protein remaining % ≤ 80%),A (A is defined as 0% ≤ substrate protein remaining % ≤ 80%),B (B is defined as substrate protein remaining % > 80%),A (A is defined as 0% ≤ substrate protein remaining % ≤ 80%),A (A is defined as 0% ≤ substrate protein remaining % ≤ 80%),B (B is defined as substrate protein remaining % > 80%),1000 to 5000,–,–
"O=C1CCC(Nc2cncc(CO)c2)C(=O)N1 (stereo not drawn) [GT-07448, 3-((5-(Hydroxymethyl)pyridin-3-yl)amino)piperidine-2,6-dione]",A (A is defined as 0% ≤ substrate protein remaining % ≤ 80%),A (A is defined as 0% ≤ substrate protein remaining % ≤ 80%),A (A is defined as 0% ≤ substrate protein remaining % ≤ 80%),A (A is defined as 0% ≤ substrate protein remaining % ≤ 80%),A (A is defined as 0% ≤ substrate protein remaining % ≤ 80%),A (A is defined as 0% ≤ substrate protein remaining % ≤ 80%),1000 to 5000,–,–
"O=Cc1ccnc(NC2CCC(=O)NC2=O)c1 (stereo not drawn) [GT-07553, 2-((2,6-Dioxopiperidin-3-yl)amino)isonicotinaldehyde]",A (A is defined as 0% ≤ substrate protein remaining % ≤ 80%),A (A is defined as 0% ≤ substrate protein remaining % ≤ 80%),B (B is defined as substrate protein remaining % > 80%),B (B is defined as substrate protein remaining % > 80%),B (B is defined as substrate protein remaining % > 80%),A (A is defined as 0% ≤ substrate protein remaining % ≤ 80%),1000 to 5000,–,–
"O=C1CCN(c2cnc(CCl)c(F)c2)C(=O)N1 [GT-07557, 1-(6-(Chloromethyl)-5-fluoropyridin-3-yl)dihydropyrimidine-2,4(1H,3H)-dione]",A (A is defined as 0% ≤ substrate protein remaining % ≤ 80%),B (B is defined as substrate protein remaining % > 80%),A (A is defined as 0% ≤ substrate protein remaining % ≤ 80%),B (B is defined as substrate protein remaining % > 80%),B (B is defined as substrate protein remaining % > 80%),A (A is defined as 0% ≤ substrate protein remaining % ≤ 80%),1000 to 5000,–,–
"O=Cc1cnc(NC2CCC(=O)NC2=O)nc1 (stereo not drawn) [GT-07367, 2-((2,6-Dioxopiperidin-3-yl)amino)pyrimidine-5-carbaldehyde]",B (B is defined as substrate protein remaining % > 80%),B (B is defined as substrate protein remaining % > 80%),A (A is defined as 0% ≤ substrate protein remaining % ≤ 80%),B (B is defined as substrate protein remaining % > 80%),A (A is defined as 0% ≤ substrate protein remaining % ≤ 80%),B (B is defined as substrate protein remaining % > 80%),1000 to 5000,–,–
"NCc1ccnc(N2CCC(=O)NC2=O)c1 [GT-07198, 1-(4-(Aminomethyl)pyridin-2-yl)dihydropyrimidine-2,4(1H,3H)-dione]",B (B is defined as substrate protein remaining % > 80%),B (B is defined as substrate protein remaining % > 80%),B (B is defined as substrate protein remaining % > 80%),A (A is defined as 0% ≤ substrate protein remaining % ≤ 80%),B (B is defined as substrate protein remaining % > 80%),B (B is defined as substrate protein remaining % > 80%),1000 to 5000,–,–
"CC(C)(C)[Si](C)(C)OCc1ccc(NC2CCC(=O)NC2=O)nc1 (stereo not drawn) [GT-07552, 3-((5-(((tert-Butyldimethylsilyl)oxy)methyl)pyridin-2-yl)amino)piperidine-2,6-dione]",B (B is defined as substrate protein remaining % > 80%),A (A is defined as 0% ≤ substrate protein remaining % ≤ 80%),B (B is defined as substrate protein remaining % > 80%),B (B is defined as substrate protein remaining % > 80%),B (B is defined as substrate protein remaining % > 80%),B (B is defined as substrate protein remaining % > 80%),–,1000 to 5000,–
"O=C1CCC(c2ncccc2CO)C(=O)N1 (stereo not drawn) [GT-07370, 3-(3-(Hydroxymethyl)pyridin-2-yl)piperidine-2,6-dione]",B (B is defined as substrate protein remaining % > 80%),B (B is defined as substrate protein remaining % > 80%),A (A is defined as 0% ≤ substrate protein remaining % ≤ 80%),B (B is defined as substrate protein remaining % > 80%),A (A is defined as 0% ≤ substrate protein remaining % ≤ 80%),B (B is defined as substrate protein remaining % > 80%),–,–,1000 to 5000

# Reference: patent EP4678638A1, “NEW E3 UBIQUITIN LIGASE LIGAND, PROTEIN DEGRADATION AGENT AND USE THEREOF” (priority 2023, dated 2024)
